The text below walks through data of ChEMBL document CHEMBL5034034 (J Med Chem, 2021).

The species named for series [1] is Sus scrofa. Description: Stability of the compound assessed as porcine pancreatic elastase-mediated parent compound depletion by measuring parent compound remaining after 1 hr by LC-MS/MS analysis.
Series [2] is described as follows: AUC extrapolated in Wistar Han rat at 5 mg/kg, id measured upto 24 hrs by LC-MS/MS analysis. Type of series: ADME, organism-based. Particulars: in vivo, other.
A short description of series [3]: AUC(0 to infinity) in Wistar Han rat at 5 mg/kg, id measured upto 24 hrs by LC-MS/MS analysis. Type of series: ADME, organism-based. Set-up: dose 5 mg/kg, time <=24. Particulars: in vivo.
Series [4] can be described thus: Metabolic stability in cynomolgus monkey whole blood assessed as half life measured upto 6 hrs by LC-MS/MS analysis. Type of series: ADME, tissue-based, Macaca fascicularis.
For series [5], the target named is T1, Proprotein convertase subtilisin/kexin type 9 (Homo sapiens, UniProt Q8NBP7). Description: Inhibition of human PCSK9 using Alexa Fluor […] as substrate incubated for 2 hrs by FRET assay.
In series [6] the target is T1, Proprotein convertase subtilisin/kexin type 9. Description: Inhibition of human PCSK9 using Alexa Fluor […] as substrate incubated for 2 hrs by FRET plus assay.
For series [7] the target is unchanged. Description: Inhibition of human PCSK9 using Alexa Fluor […] as substrate incubated for 2 hrs by FRET ultra assay.
Series [8] concerns the target T2, Solute carrier organic anion transporter family member 1B1 (Homo sapiens, UniProt Q9Y6L6).
T2 sequence (Q9Y6L6 whole entry): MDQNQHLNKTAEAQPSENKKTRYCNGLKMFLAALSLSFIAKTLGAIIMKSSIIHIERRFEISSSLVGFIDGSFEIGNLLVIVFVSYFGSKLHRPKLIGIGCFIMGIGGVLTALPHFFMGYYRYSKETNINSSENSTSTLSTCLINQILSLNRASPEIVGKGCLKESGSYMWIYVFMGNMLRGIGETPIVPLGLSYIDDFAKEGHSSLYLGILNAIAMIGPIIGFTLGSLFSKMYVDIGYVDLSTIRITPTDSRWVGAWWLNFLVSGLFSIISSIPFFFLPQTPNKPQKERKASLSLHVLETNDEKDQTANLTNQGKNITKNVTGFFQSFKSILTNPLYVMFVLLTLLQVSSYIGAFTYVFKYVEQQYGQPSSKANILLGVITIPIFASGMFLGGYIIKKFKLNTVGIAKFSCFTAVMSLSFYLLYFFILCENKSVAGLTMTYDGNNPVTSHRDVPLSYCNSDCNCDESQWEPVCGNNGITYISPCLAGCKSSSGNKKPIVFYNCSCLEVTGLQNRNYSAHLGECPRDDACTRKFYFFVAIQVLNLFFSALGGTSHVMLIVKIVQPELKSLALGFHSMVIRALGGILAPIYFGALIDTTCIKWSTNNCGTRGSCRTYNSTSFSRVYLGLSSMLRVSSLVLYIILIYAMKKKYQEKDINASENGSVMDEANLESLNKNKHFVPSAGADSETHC
Description: Inhibition of OATP1B1 (unknown origin) expressed in HEK293 cells assessed as reduction in OATP 1B1-mediated [3H]-pitavastatin uptake preincubated for 30 mins followed by [3H]-pitavastatin addition and measured after 2 mins by liquid scintillation analysis. The format is cell-based.

For another series, the species on record is Bos taurus. Description: Stability of the compound assessed as bovine pancreas alpha chymotrypsin-mediated parent compound depletion by measuring parent compound remaining after 1 hr by LC-MS/MS analysis.
The species entered for series [9] is Sus scrofa. Description: Stability of the compound assessed as porcine pepsin-mediated parent compound depletion by measuring parent compound remaining after 1 hr by LC-MS/MS analysis.
Series [10] is described as follows: Stability of the compound assessed as bovine pancreatic trypsin-mediated parent compound depletion by measuring parent compound remaining after 1 hr by LC-MS/MS analysis. The format is ADME, Bos taurus. Particulars: cattle, read-out: Stability.
Series [11] is described as follows: Cmax in Wistar Han rat at 5 mg/kg, id measured upto 24 hrs by LC-MS/MS analysis. The format is ADME, organism-based. Set-up: dose 5 mg/kg, time <=24. Particulars: in vivo.
Series [12] is described as follows: Tmax in Wistar Han rat at 5 mg/kg, id measured upto 24 hrs by LC-MS/MS analysis. Particulars: in vivo. The format is ADME, organism-based.
The nature of series [13]: Bioavailability in Wistar Han rat at 5 mg/kg, id measured upto 24 hrs by LC-MS/MS analysis. Type of series: ADME, organism-based. Particulars: in vivo.
Series [14] in a line: AUC(0 to infinity) in cynomolgus monkey at 0.2 mg/kg, iv measured upto 72 hrs by LC-MS/MS analysis. Set-up: route intravenous, dose 0.2 mg/kg, time <=72. Type of series: ADME, organism-based, Macaca fascicularis. Particulars: in vivo.
Series [15] is described as follows: Clearance in cynomolgus monkey at 0.2 mg/kg, iv measured upto 72 hrs by LC-MS/MS analysis. Particulars: in vivo. Type of series: ADME, organism-based, Macaca fascicularis.
Series [16] can be described thus: Volume of distribution at steady state in cynomolgus monkey at 0.2 mg/kg, iv measured upto 72 hrs by LC-MS/MS analysis. The format is ADME, organism-based, Macaca fascicularis. Particulars: in vivo, read-out: Vdss.
Series [17] is described as follows: Half life in cynomolgus monkey at 0.2 mg/kg, iv measured upto 72 hrs by LC-MS/MS analysis. Particulars: in vivo. Type of series: ADME, organism-based, Macaca fascicularis.
A short description of series [18]: Protein binding in cynomolgus monkey at 0.2 mg/kg, iv measured upto 72 hrs by LC-MS/MS analysis. Type of series: ADME, organism-based, Macaca fascicularis. Particulars: in vivo, read-out: PB (converted).
The nature of series [19]: Unbound clearance in cynomolgus monkey at 0.2 mg/kg, iv measured upto 72 hrs by LC-MS/MS analysis. The format is ADME, organism-based, Macaca fascicularis. Particulars: in vivo.
The next series has as its system Mast cell. Description: Induction of rat mast cells degranulation activity at 100 uM incubated for 30 mins. Type of series: functional, tissue-based.
The nature of series [20]: Reduction in LDL-cholesterol levels in cynomolgus monkey at 0.2 mg/kg, iv after 48 hrs. Type of series: functional, Macaca fascicularis. Set-up: scale not given: the % may be the effect or the level left.
For another series, the system named is Macaca fascicularis. Description: Reduction in LDL-cholesterol levels in cynomolgus monkey at 0.2 mg/kg, iv after 4 weeks. The format is functional, organism-based.
Series [21] in a line: Reduction in unbound PCSK9 levels in cynomolgus monkey at 0.2 mg/kg, iv after 24 to 48 hrs. Type of series: functional, Macaca fascicularis. Set-up: scale not given: the % may be the effect or the level left. Particulars: time 24-48 hrs.

Structures are written as SMILES. The source made the active and inactive calls. The calls are words filed in the database; no cut-off is given here. A value given as a limit tells only on which side of the number the result lay.

T1 sequence (Q8NBP7 31-152 limits assumed): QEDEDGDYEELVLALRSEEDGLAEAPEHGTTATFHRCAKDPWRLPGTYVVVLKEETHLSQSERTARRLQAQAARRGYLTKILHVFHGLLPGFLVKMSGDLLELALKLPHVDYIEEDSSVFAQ
T1 sequence (Q8NBP7 153-692 limits assumed): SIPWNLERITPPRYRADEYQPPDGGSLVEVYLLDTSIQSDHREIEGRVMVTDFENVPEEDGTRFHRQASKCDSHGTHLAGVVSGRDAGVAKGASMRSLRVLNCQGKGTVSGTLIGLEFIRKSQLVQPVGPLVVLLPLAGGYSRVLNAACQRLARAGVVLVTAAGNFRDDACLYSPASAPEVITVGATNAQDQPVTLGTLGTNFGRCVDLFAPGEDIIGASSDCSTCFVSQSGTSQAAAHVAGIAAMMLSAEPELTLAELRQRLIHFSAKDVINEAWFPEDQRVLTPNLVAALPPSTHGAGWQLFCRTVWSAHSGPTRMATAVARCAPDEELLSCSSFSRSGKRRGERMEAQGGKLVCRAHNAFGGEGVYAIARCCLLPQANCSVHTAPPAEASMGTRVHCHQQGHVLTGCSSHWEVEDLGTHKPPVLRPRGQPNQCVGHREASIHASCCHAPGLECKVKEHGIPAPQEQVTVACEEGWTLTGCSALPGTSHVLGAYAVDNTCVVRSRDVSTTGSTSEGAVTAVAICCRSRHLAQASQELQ

Turning to `COc1ccc(C[C@@H]2NC(=O)[C@H]([C@@H](C)O)NC(=O)[C@@H]3[C@@H]4CCN3C(=O)[C@@H]3Cc5cn(c6ccc(F)cc56)Cc5cn(nn5)-c5cc(cc(c5)CSCCC(=O)N[C@@H](C)C(=O)N[C@H](CNC(=O)CCOCCOCC[N+](C)(C)C)C(=O)N[C@@H](Cc5cccc(c5)C/C=C/CO4)C(=O)N3)CSCCNC(=O)[C@]3(C)CCCN3C2=O)cc1`, the Stability in the series listed under Sus scrofa [1] was 92.6%; in the series listed under Bos taurus it was 95.3%; in the series listed under Sus scrofa [9], 99%. Further, the “%AUCextra” value in [2] was 3%. Besides, the AUC(0-inf) (usually the area under the concentration-time curve extrapolated to infinity) in series [3] was determined as 0.497 µM·h; in [14] it was 0.762 µM·h. The half-life (usually the time in which the quantity being followed falls by half) in series [4] is more than 6 h; in series [17] it was 10.1 h. The values for the Ki in [5], in series [6] and in series [7] were less than 0.129 nM, 0.00736 nM and 0.00093 nM, respectively. For the same compound, the EC50 (usually the midpoint of the concentration-response curve) in series [8] is 2500 nM. The remaining at 1 h in series [10] came to 100%. For the same compound, the Cmax (in general, the highest concentration seen after dosing) in [11] came to 178 nM. Further, the Tmax (as a rule, the time at which the peak concentration occurs) in series [12] came out at 0.3 h. Further, the bioavailability – broadly, the share of a dose that reaches the circulation, judged against a reference dose that is usually intravenous – in series [13] turned out to be 1.4%. Also, the clearance (as a rule, the rate of elimination divided by the concentration) in series [15] amounted to 2.7 mL/min/kg. The Vd in series [16] was 1.2 L/kg. For the same compound, in [18], the fraction unbound at 72 h is 0.256. For the same compound, the CL free in series [19] is 10.6 mL/min/kg. In addition, the result in the series with Mast cell and in the series with Macaca fascicularis was inactive. Also, the Activity in [20] is given as more than 50%; in series [21], more than 80%.
